These results are taken from patent US20160355530A1, “HEPATITIS C INHIBITORS AND USES THEREOF” (AbbVie Inc., priority 2010, published 2016).

Read-outs that look alike come from different tables or passages of the source.

A word on the EC50: it is the concentration giving half of the maximal effect. The IC50 is the concentration needed to halve the response being measured.

The test system of experiment [1] is chimeric replicon with genotype 4a NS5B. Kind of experiment: microbe, parasite or virus in culture. The format is cell-based, HCV genotype 4a. The note with it: Hepatitis C virus, read-out: 4a chimera 5% FBS EC50.
For experiment [2], the system named is HCV 1b-BB7 subgenomic replicon. Nature of the experiment: microbe, parasite or virus in culture. The format is cell-based, HCV genotype 1b. The note with it: Hepatitis C virus, stable replicon. (In general: A replicon is a self-replicating genome or part of one, used to study replication in cells.)
Experiment [3] has as its system chimeric replicon with genotype 2b NS5B. Nature of the experiment: microbe, parasite or virus in culture. The following applies: Hepatitis C virus, read-out: 2b chimera 5% FBS EC50. The format is cell-based, HCV genotype 2b.
Experiment [4] concerns HCV 1a-H77 subgenomic replicon. Nature of the experiment: microbe, parasite or virus in culture. The format is cell-based, HCV genotype 1a. The following applies: Hepatitis C virus, stable replicon.
For experiment [5], the system named is chimeric replicon with 2a-J6CF-derived NS5B. Kind of experiment: microbe, parasite or virus in culture. The note with it: Hepatitis C virus, read-out: 2a chimera 5% FBS EC50. Type of experiment: cell-based, HCV genotype 2a.
Experiment [6] concerns the target T1, HCV NS5B polymerase 1a-H77 (Hepatitis C virus genotype 1a, UniProt P27958).
T1 construct: six-histidine tag; made in house; host or cells: E. coli
Nature of the experiment: biochemical. Details: species or system HCV genotype 1a. In outline: (§1)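 E. coli-expressed NS5B (residues 1-570, His-tagged) transcribed a 2.1 kb HCV 1b negative-strand 3′-end RNA template (5 nM) with 20 μM CTP, 20 μM ATP and 0.284 μM [3H]UTP for 3 h at 30° C. Spermine-precipitated RNA was filter-captured and counted by scintillation; IC50 from nonlinear regression.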

Experiment [7] deals with T2, HCV NS5B polymerase 1a-H77-C316Y (Hepatitis C virus genotype 1a, UniProt P27958, C2736Y).
T2 construct: six-histidine tag; made in house; host or cells: E. coli
Kind of experiment: biochemical. Details: species or system HCV genotype 1a. The method in brief: as §1

For experiment [8], the system named is HCV NS5B polymerase 1a-H77-C316Y. Kind of experiment: biochemical. The note with it: ratio of enzyme IC50s, 1a H77-C316Y / 1a H77. Also noted: species or system HCV genotype 1a. The method in brief:
as §1

The subject of experiment [9] is chimeric replicon with genotype 3a NS5B. Kind of experiment: microbe, parasite or virus in culture. Type of experiment: cell-based, HCV genotype 3a. The following applies: Hepatitis C virus, read-out: 3a chimera 5% FBS EC50.
Experiment [10] addresses T3, HCV NS5B polymerase 1b BK strain (Hepatitis C virus genotype 1b, UniProt P26663).
T3 construct: six-histidine tag; made in house; host or cells: E. coli
Kind of experiment: HCV NS5B polymerase enzymatic inhibition assay, strain 1b BK. The format is biochemical. In outline: as §1

[11] abbreviates: strain 1b BB7, 5% FBS + 40% human plasma, read-out: 1b BB7 5% FBS + 40% Human Plasma EC50.
The mark [12] stands for this setting: strain 1b BB7, 5% FBS, no human plasma, read-out: 1b BB7 5% FBS EC50.
The mark [13] stands for this setting: strain 1b BB7, 5% FBS, read-out: 1b BB7 5% FBS EC50.
Where [14] appears, read: 5% FBS, absence of human plasma, read-out: Stable Replicon 1a H77 5% FBS EC50.
[15] abbreviates: strain 1a H77, 5% FBS + 40% human plasma, read-out: 1a H77 5% FBS + 40% Human Plasma EC50.
[16] abbreviates: strain 1a H77, 5% FBS, no human plasma, read-out: 1a H77 5% FBS EC50.
The mark [17] stands for this setting: strain 1a H77, 5% FBS, read-out: 1a H77 5% FBS EC50.
Setting [18] is: enzyme, strain 1a H77, read-out: HCV Polymerase Strain 1a H77 IC50.
[19] abbreviates: enzyme, strain 1b BK, read-out: HCV Polymerase Strain 1b BK IC50.

T3 sequence (P26663 2420-2989): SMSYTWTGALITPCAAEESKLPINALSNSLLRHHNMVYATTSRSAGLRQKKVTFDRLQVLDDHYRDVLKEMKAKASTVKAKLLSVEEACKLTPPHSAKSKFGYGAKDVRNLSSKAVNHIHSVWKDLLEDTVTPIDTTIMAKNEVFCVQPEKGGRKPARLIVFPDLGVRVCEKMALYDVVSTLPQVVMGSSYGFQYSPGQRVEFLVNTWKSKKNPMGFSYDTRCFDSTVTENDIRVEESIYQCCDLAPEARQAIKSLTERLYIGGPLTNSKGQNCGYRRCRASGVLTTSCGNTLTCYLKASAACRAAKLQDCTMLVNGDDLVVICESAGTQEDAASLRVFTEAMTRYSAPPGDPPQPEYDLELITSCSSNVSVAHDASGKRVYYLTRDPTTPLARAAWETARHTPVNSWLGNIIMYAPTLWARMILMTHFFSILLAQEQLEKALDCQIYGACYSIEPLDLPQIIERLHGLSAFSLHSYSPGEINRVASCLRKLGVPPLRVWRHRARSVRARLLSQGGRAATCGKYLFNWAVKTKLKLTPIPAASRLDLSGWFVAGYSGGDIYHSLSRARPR
T1 sequence (P27958 2421-2990): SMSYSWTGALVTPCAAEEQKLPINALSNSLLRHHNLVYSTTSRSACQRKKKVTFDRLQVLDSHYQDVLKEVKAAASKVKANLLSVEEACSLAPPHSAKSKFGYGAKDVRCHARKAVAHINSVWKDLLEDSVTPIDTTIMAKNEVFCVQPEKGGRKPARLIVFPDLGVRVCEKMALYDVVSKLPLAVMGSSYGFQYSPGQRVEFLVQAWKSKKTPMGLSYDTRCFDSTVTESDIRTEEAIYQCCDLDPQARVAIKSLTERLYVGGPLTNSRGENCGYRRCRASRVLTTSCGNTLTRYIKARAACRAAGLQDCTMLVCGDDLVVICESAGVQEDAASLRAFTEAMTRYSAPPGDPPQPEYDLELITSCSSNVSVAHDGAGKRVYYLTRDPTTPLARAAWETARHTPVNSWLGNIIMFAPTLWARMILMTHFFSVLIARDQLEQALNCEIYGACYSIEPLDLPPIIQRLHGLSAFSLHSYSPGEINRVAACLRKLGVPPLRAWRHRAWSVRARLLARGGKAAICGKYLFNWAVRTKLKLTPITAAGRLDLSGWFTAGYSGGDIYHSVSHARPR
T2 sequence (P27958 2421-2990 C2736Y): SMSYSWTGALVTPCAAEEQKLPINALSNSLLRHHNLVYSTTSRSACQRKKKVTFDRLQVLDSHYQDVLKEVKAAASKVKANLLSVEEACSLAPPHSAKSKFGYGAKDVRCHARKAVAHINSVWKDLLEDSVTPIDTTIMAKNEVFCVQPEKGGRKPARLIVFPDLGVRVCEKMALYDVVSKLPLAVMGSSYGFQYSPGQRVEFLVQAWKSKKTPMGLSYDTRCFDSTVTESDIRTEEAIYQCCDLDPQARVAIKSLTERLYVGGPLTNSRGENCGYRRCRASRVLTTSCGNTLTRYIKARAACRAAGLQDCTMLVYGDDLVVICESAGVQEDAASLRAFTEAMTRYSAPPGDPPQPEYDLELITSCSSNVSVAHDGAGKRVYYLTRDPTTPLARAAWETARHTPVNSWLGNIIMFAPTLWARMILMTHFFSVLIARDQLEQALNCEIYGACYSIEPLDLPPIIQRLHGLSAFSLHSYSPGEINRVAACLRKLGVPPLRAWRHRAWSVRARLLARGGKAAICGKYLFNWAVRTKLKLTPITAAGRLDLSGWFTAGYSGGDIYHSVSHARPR

As to `CS(=O)(=O)N(Cc1cnc(-c2ccc3[nH]ccc3c2)s1)c1ccc2c(-c3ncc[nH]3)c(-c3ccccc3)oc2c1` [Example 23, N-[3-(1H-imidazol-2-yl)-2-phenyl-1-benzofuran-6-yl]-N-{[2-(1H-indol-5-yl)-1,3-thiazol-5-yl]methyl}methanesulfonamide], the EC50 in experiment [1] was found to be 313 nM; in experiment [2] (setting [11]), 9240 nM; in experiment [2] (setting [12]), 26.4 nM; in [2] (setting [13]) it was 26.4 nM; in experiment [3], 281 nM; in experiment [4] (setting [14]) it was 230 nM. Also, the EC50 turned out to be 10000 nM in [4] (setting [15]); 230 nM in experiment [4] (setting [16]); 230 nM in experiment [4] (setting [17]); 41.6 nM in [5]; 17.3 nM in experiment [9]. Moreover, the IC50 turned out to be 3.9 nM in experiment [6] (setting [18]), 27 nM in experiment [7] and 10 nM in experiment [10] (setting [19]). For the same compound, the “C316Y/1a Fold Resistance” value in experiment [8] was determined as 7 fold.

On to `C[S+]([O-])c1ccc(-c2ncc(CN(c3ccc4c(-c5ncc[nH]5)c(-c5ccccc5)oc4c3)S(C)(=O)=O)s2)cc1` (centres unmarked) [Example 24, N-[3-(1H-imidazol-2-yl)-2-phenyl-1-benzofuran-6-yl]-N-({2-[4-(methylsulfinyl)phenyl]-1,3-thiazol-5-yl}methyl)methanesulfonamide], for which the EC50 is 362 nM in [1]; 3850 nM in [2] (setting [11]); 12.4 nM in [2] (setting [12]); 12.4 nM in [2] (setting [13]); 193 nM in experiment [3]; 157 nM in experiment [4] (setting [14]). Also, the EC50 came out at 10000 nM in [4] (setting [15]); 157 nM in experiment [4] (setting [16]); 157 nM in [4] (setting [17]); 206 nM in experiment [5]; 5.4 nM in [9]. Further, the IC50 in experiment [6] (setting [18]) amounted to 6.9 nM; in [7], 36 nM; in experiment [10] (setting [19]), 18 nM. Further, the “C316Y/1a Fold Resistance” value in experiment [8] amounted to 5 fold.

Regarding `Cn1ccc2cc(-c3ncc(CN(c4ccc5c(-c6ncc[nH]6)c(-c6ccccc6)oc5c4)S(C)(=O)=O)s3)ccc21` [Example 25, N-[3-(1H-imidazol-2-yl)-2-phenyl-1-benzofuran-6-yl]-N-{[2-(1-methyl-1H-indol-5-yl)-1,3-thiazol-5-yl]methyl}methanesulfonamide], the EC50 is 452 nM in experiment [1]; 10000 nM in experiment [2] (setting [11]); 8.2 nM in [2] (setting [12]); 8.2 nM in [2] (setting [13]); 382 nM in experiment [3]; 266 nM in experiment [4] (setting [14]). Further, the concentration for a half-maximal effect (EC50) is 10000 nM in experiment [4] (setting [15]); 266 nM in [4] (setting [16]); 266 nM in experiment [4] (setting [17]); 108 nM in experiment [5]; 10.7 nM in [9]. Also, the values for the IC50 in experiment [6] (setting [18]), in [7] and in experiment [10] (setting [19]) were 6.3 nM, 43 nM and 15 nM, respectively. Further, the “C316Y/1a Fold Resistance” value in experiment [8] was determined as 7 fold.

In the case of `Cn1cc(-c2ncc(CN(c3ccc4c(-c5ncc[nH]5)c(-c5ccccc5)oc4c3)S(C)(=O)=O)s2)cn1` [Example 26, N-[3-(1H-imidazol-2-yl)-2-phenyl-1-benzofuran-6-yl]-N-{[2-(1-methyl-1H-pyrazol-4-yl)-1,3-thiazol-5-yl]methyl}methanesulfonamide], the EC50 in experiment [1] amounted to 377 nM; in experiment [2] (setting [11]), 5450 nM; in experiment [2] (setting [12]) it was 15 nM; in experiment [2] (setting [13]) it was 15 nM; in experiment [3], 497 nM; in experiment [4] (setting [14]), 343 nM. Further, the EC50 was found to be 10000 nM in [4] (setting [15]); 343 nM in experiment [4] (setting [16]); 343 nM in [4] (setting [17]); 277 nM in experiment [5]; 5.2 nM in [9]. Besides, the IC50 in [6] (setting [18]) is 12 nM; in [7], 30 nM; in experiment [10] (setting [19]) it was 10 nM. Also, the “C316Y/1a Fold Resistance” value in [8] is 3 fold.

Regarding `CS(=O)(=O)N(Cc1cnc(-c2cccc(CO)c2)s1)c1ccc2c(-c3ncc[nH]3)c(-c3ccccc3)oc2c1` [Example 28, N-({2-[3-(hydroxymethyl)phenyl]-1,3-thiazol-5-yl}methyl)-N-[3-(1H-imidazol-2-yl)-2-phenyl-1-benzofuran-6-yl]methanesulfonamide], the EC50 stood at 378 nM in experiment [1]; 10000 nM in experiment [2] (setting [11]); 24.1 nM in experiment [2] (setting [12]); 24.1 nM in [2] (setting [13]); 561 nM in experiment [3]; 405 nM in experiment [4] (setting [14]). Further, the EC50 in experiment [4] (setting [15]) stood at 10000 nM; in [4] (setting [16]) it was 405 nM; in experiment [4] (setting [17]), 405 nM; in [5], 234 nM; in experiment [9] it was 14.3 nM. In addition, the 50% inhibitory concentration (IC50) turned out to be 5.9 nM in [6] (setting [18]), 28 nM in [7] and 12 nM in [10] (setting [19]). Further, the “C316Y/1a Fold Resistance” value in experiment [8] is 5 fold.

In the case of `Cn1cnc2ccc(-c3ncc(CN(c4ccc5c(-c6ncc[nH]6)c(-c6ccccc6)oc5c4)S(C)(=O)=O)s3)cc21` [Example 30, N-[3-(1H-imidazol-2-yl)-2-phenyl-1-benzofuran-6-yl]-N-{[2-(1-methyl-1H-benzimidazol-6-yl)-1,3-thiazol-5-yl]methyl}methanesulfonamide], the EC50 in experiment [1] was found to be 150 nM; in [2] (setting [11]), 1320 nM; in [2] (setting [12]), 4 nM; in experiment [2] (setting [13]), 4 nM; in [3] it was 109 nM; in experiment [4] (setting [14]), 108 nM. In addition, the EC50 in experiment [4] (setting [15]) turned out to be 10000 nM; in [4] (setting [16]) it was 108 nM; in experiment [4] (setting [17]), 108 nM; in experiment [5], 40.7 nM; in experiment [9] it was 2.8 nM. The IC50 in [6] (setting [18]) came to 5 nM; in experiment [7] it was 19 nM; in experiment [10] (setting [19]), 12 nM. In addition, in experiment [8], the “C316Y/1a Fold Resistance” value was found to be 4 fold.

Regarding `CS(=O)(=O)N(CCCOc1ccccc1)c1cc2oc(-c3ccc(F)cc3)c(-c3ncc[nH]3)c2cc1C1CC1` [Example 37, N-[5-cyclopropyl-2-(4-fluorophenyl)-3-(1H-imidazol-2-yl)-1-benzofuran-6-yl]-N-(3-phenoxypropyl)methanesulfonamide], the EC50 in experiment [1] is 598 nM; in experiment [2] (setting [11]), 529 nM; in experiment [2] (setting [12]), 145 nM; in experiment [2] (setting [13]), 145 nM; in experiment [3], 751 nM; in experiment [4] (setting [14]), 348 nM. Also, the EC50 amounted to 1390 nM in experiment [4] (setting [15]); 348 nM in experiment [4] (setting [16]); 348 nM in experiment [4] (setting [17]); 522 nM in experiment [5]; 166 nM in experiment [9]. The IC50 is 5.5 nM in [6] (setting [18]), 144 nM in [7] and 24 nM in experiment [10] (setting [19]). The “C316Y/1a Fold Resistance” value in experiment [8] is on record as 26 fold.

As to `CS(=O)(=O)N(CCCN1CCCCC1)c1cc2oc(-c3ccc(F)cc3)c(C3=NOCCN3)c2cc1C1CC1` [Example 130, N-[5-cyclopropyl-3-(5,6-dihydro-4H-1,2,4-oxadiazin-3-yl)-2-(4-fluorophenyl)-1-benzofuran-6-yl]-N-[3-(piperidin-1-yl)propyl]methanesulfonamide], the EC50 is 416 nM in experiment [1]; 110 nM in experiment [2] (setting [11]); 26 nM in experiment [2] (setting [12]); 26 nM in [2] (setting [13]); 44.2 nM in experiment [4] (setting [14]); 296 nM in experiment [4] (setting [15]). Moreover, the EC50 in [4] (setting [16]) worked out at 44.2 nM; in experiment [4] (setting [17]), 44.2 nM; in experiment [5], 74 nM; in experiment [9] it was 42.6 nM. Moreover, the IC50 stood at 20.5 nM in experiment [6] (setting [18]), 412 nM in experiment [7] and 229 nM in experiment [10] (setting [19]). In addition, the “C316Y/1a Fold Resistance” value in [8] is given as 20 fold.

`CS(=O)(=O)N(Cc1cc(O)no1)c1cc2oc(-c3ccc(F)cc3)c(-c3ncc[nH]3)c2cc1C1CC1` [Example 190, N-[5-cyclopropyl-2-(4-fluorophenyl)-3-(1H-imidazol-2-yl)-1-benzofuran-6-yl]-N-[(3-hydroxy-1,2-oxazol-5-yl)methyl]methanesulfonamide]: the EC50 in [2] (setting [11]) came out at 1370 nM; in experiment [2] (setting [13]), 116 nM; in experiment [4] (setting [14]) it was 263 nM; in [4] (setting [15]), 3460 nM; in [4] (setting [17]) it was 263 nM. Further, the IC50 in [6] was determined as 4.5 nM; in experiment [7], 500 nM; in experiment [10], 26 nM. Besides, the “C316Y/1a Fold Resistance” value in [8] stood at 112 fold.
